Patent publication US11246872B2, “Topical acyclovir formulations and uses thereof” (priority 2019, dated 2022)
Where two headings read alike, the source gives them in different places.

Format: physicochemical
Method: This Example studies the solubility and stability of acyclovir in various topical excipients. Table 1 and Table 2 below indicate the various excipients that solubility was tested in and stability of acyclovir in these excipients, respectively. [table]

With `Nc1nc2c(ncn2COCCO)c(=O)[nH]1` [Acyclovir] the “Saturated solubility of Acyclovir” value (pH 4) was 0.10 (0.10-0.10) % w/w and the “Saturated solubility of Acyclovir” value (pH 6) was 0.10 (0.09-0.10) % w/w.
